Reference: US20060193777A1, “Method of screening compounds for potential efficacy for the treatment of signs of aging” (priority 2005, published 2006)

Experiments:
Human keratinocytes [1] = experiment: Electric Cell-Substrate Impedance Sensing (ECIS) capacitance contraction of human keratinocytes; assay type: cell-based; details: for Electrical Capacitance Contraction of Human Keratinocytes (AUC of capacitance, Mean ± Std Dev): integrated over 5 hrs, 40,000 Hz, pH 7.2-7.3; for contraction or shrinkage of keratinocyte cell area as measured by keratinocyte capacitance (in words): compared to media treatment alone
Text: Electrical changes due to the presence of a cell layer can be used to calculate cell morphological parameters including the barrier function of the cell layer (the spacing between the ventral side of the cell and the substratum) and the cell membrane capacitance (Giaever and Keese, Proceedings of National Academy of Sciences 88, 7896, 1991).
Current flowing between a reference electrode, onto which cells or cell cultures may be attached, and a larger counter electrode using normal culture medium as the electrolyte can be used to detect changes in cell morphological parameters. In the absence of cells on the electrode, the current flows unrestrained from the surface of the electrodes. In the presence of cells attached and spread upon the electrode, the current must now flow in the spaces under and between the cells, as the cell membrane act as insulators.
The electrical changes of living, viable cells can be sampled rapidly, in real time, over an extended period of time, and the measurements are the measurement is non-invasive. An example of this technology is the Electric Cell-substrate Impedance Sensing System (ECIS) available from Applied Biophysics (Troy, N.Y.). Electrical changes in keratinocyte morphological parameters can be used to identify novel compounds for anti-aging benefits.
Human keratinocytes and Epilife culture media (Cascade Biologics, Portland, Oreg.) were cultured at 37° C. in a humidified atmospheres of 5% CO2/95% air. Electric Cell-substrate Impedance Sensing System (ECIS) electrode arrays (Applied Biophysics , Troy, N.Y.) were coated with 0.01 mg/ml Laminin V (Sigma Aldirch, St Louis, Mo.) in sterile Phosphate Buffered Saline (Gibco Life Sciences, San Diego, Calif.). Human keratinocytes were prepared at a density of 0.125×10^6 cells/mL in Epilife culture media. Human keratinocytes were plated at 5.0×10^4 cells/electrode well and cultured at 37° C. in a humidified atmospheres of 5% CO2/95% O2 for 24-48 hrs. Capacitance changes (in nanofarads, nF) of keratinocytes were measured using a Electric Cell-substrate Impedance Sensing System (ECIS) Model 1600R (Applied Biophysics, Troy, N.Y.) using the method of Wegener and co-workers (Wegener J, Keese C R, Giaever I, Exp Cell Res. 259:158-166, 2000) at a frequency of 40,000 Hz. Capacitance readings are inversely related to the contact area of a cell onto the ECIS electrode array, the greater the cell area contacting the electrode the smaller the capacitance readings (Wegener J, Keese C R, Giaever I, Exp Cell Res. 259:158-166, 2000). Conversely as a cell contracts or shrinks, the contact area of the cell onto the ECIS electrode array decreases, resulting in an increase in the capacitance readings. […] These calculations are based on the trapezoid theorem. The AUC of the media curve was subtracted from the compound treated group. A positive AUC difference indicates keratinocyte contraction, the greater the AUC difference the greater the amount of keratinocyte contraction. […] DMAE is a known skin-firming agent. The compounds were diluted into Hank's Buffered Salt Solution (HBSS; Gibco Life Sciences, San Diego, Calif.) and the pH of the solution adjusted to between pH 7.2-7.3. The pH of the HBSS without compounds (“Media Alone”) was also adjusted to pH 7.2-7.3.

Human keratinocytes [2] = experiment: Reversal of visual contraction of human keratinocytes after removal of DMAE; assay type: cell-based; details: for Reversal of Visual Contraction of Human Keratinocytes (Mean ± Std Dev): 0.1% DMAE
Method: Human keratinocytes and Epilife culture media (Cascade Biologics, Portland, Oreg.) were cultured at 37° C. in a humidified atmospheres of 5% CO2/95% air. Glass Cover Slides (Applied Biophysics, Troy, N.Y.) were coated with 0.01 mg/ml Laminin V (Sigma Aldirch, St Louis, Mo.) in sterile Phosphate Buffered Saline (Gibco Life Sciences, San Diego, Calif.). Human keratinocytes were prepared at a density of 0.125×10^6 cells/mL in Epilife culture media. Human keratinocytes were plated at 3.75×10^4 cells/well on a 6 well plate containing Laminin coated coverslips and cultured at 37° C. in a humidified atmospheres of 5% CO2/95% O2 for 48 hrs. Individual coverslips were transferred to a open bath imaging chamber (Warner Instruments, Hamden, Conn.) mounted on a Leica inverted microscope (Leitz DM1L) with an attached CCD camera. Cells were perfused with Hank's Buffered Salt Solution (HBSS; Gibco Life Sciences, San Diego, Calif.) at flow rate of 1 ml/min using a peristaltic pump (Cole Parmer, Vernon Hills, Ill.). […] The pH of the HBSS without DMAE or THPED. (“Media Alone”) was also adjusted to pH 7.2-7.3. […] Images were collected of a field of keratinocytes containing 10-20 cells at 0, 10 and 20 minutes of treatment using ImagePro software. Cell area was determined using Scion Image software (Version 4.0.2), and reductions in cell area were reported as the ratio of cell area after treatment to cell area prior to treatment
In the following example, keratinocytes were prepared and plated on coverslips as described above.

[3] = tested on: granular cells in the viable epidermis; experiment: Confocal reflectance microscopy of upper inner arm skin, cell size decrease after product application; assay type: in vivo, human; details: two microliters/cm^2, imaged over 20 minutes, eight volunteers, gel with 3% DMAE
Method: A study was conducted using a VivaScope 1000 Confocal Reflectance Microscope from Lucid (Rochester, N.Y.) and a water immersion objective of NA 1.2-0.7 (60×). Sites on the upper inner arm were imaged immediately after product application (two microliters/cm^2 was applied) and every 2 minutes for an interval of 20 minutes. […] The confocal microscope was set up to acquire 16 frames from the top of the stratum corneum in steps of 3 micrometers, allowing observation of changes in cell size/morphology within a 48 micrometer depth region. As described by Rajadhyaksha et al., J. Invest. Dermatol. 113(3):293-303 (1999), the size of the cells varies (in diameter) with skin depth from 25-30 micromerters in the granular cells to 15-25 micrometers in spinous cells layers. In this study, cells were observed approximately 21 micrometers from the top of the stratum corneum, primarily granular cells, or at the top of the spinous cells. The exact same cells were compared in the initial maps and in the final maps in order to avoid any interference of cell size differences with the depth as described by Rajadhyaksha et al. After image acquisition, we used an enhancement routine developed in IDL® Software (Research System Inc., Boulder, Colo.) and the cells size area were measured using Image Pro Plus® (Media Cybernetics Inc., Silver Springs, Md.). […]

Human keratinocytes [4] = experiment: Visual contraction of human keratinocytes by real time visual microscopy (cell area); assay type: cell-based
Method: Human keratinocytes and Epilife culture media (Cascade Biologics, Portland, Oreg.) were cultured at 37° C. in a humidified atmospheres of 5% CO2/95% air. Glass Cover Slides (Applied Biophysics, Troy, N.Y.) were coated with 0.01 mg/ml Laminin V (Sigma Aldirch, St Louis, Mo.) in sterile Phosphate Buffered Saline (Gibco Life Sciences, San Diego, Calif.). Human keratinocytes were prepared at a density of 0.125×10^6 cells/mL in Epilife culture media. Human keratinocytes were plated at 3.75×10^4 cells/well on a 6 well plate containing Laminin coated coverslips and cultured at 37° C. in a humidified atmospheres of 5% CO2/95% O2 for 48 hrs. Individual coverslips were transferred to a open bath imaging chamber (Warner Instruments, Hamden, Conn.) mounted on a Leica inverted microscope (Leitz DM1L) with an attached CCD camera. Cells were perfused with Hank's Buffered Salt Solution (HBSS; Gibco Life Sciences, San Diego, Calif.) at flow rate of 1 ml/min using a peristaltic pump (Cole Parmer, Vernon Hills, Ill.). […] The pH of the HBSS without DMAE or THPED. (“Media Alone”) was also adjusted to pH 7.2-7.3. […] Cell area was determined using Scion Image software (Version 4.0.2), and reductions in cell area were reported as the ratio of cell area after treatment to cell area prior to treatment

Compound: CN(C)CCO [DMAE, 2-(dimethylamino)ethanol]
- Electrical Capacitance Contraction of Human Keratinocytes (AUC of capacitance, Mean ± Std Dev) (Human keratinocytes [1]; 0.01% V/V): 22.82 ± 4.1
- Electrical Capacitance Contraction of Human Keratinocytes (AUC of capacitance, Mean ± Std Dev) (Human keratinocytes [1]; 0.05% V/V): 28.8 ± 5.6
- Electrical Capacitance Contraction of Human Keratinocytes (AUC of capacitance, Mean ± Std Dev) (Human keratinocytes [1]; 0.1% V/V): 36.1 ± 5.9
- contraction or shrinkage of keratinocyte cell area as measured by keratinocyte capacitance (in words) (Human keratinocytes [1]): dose-dependent contraction or shrinkage
- Reversal of Visual Contraction of Human Keratinocytes (Mean ± Std Dev) (Human keratinocytes [2]; 20 Min Treatment with DMAE): 32.17% ± 2.65%
- Reversal of Visual Contraction of Human Keratinocytes (Mean ± Std Dev) (Human keratinocytes [2]; 30 Min After Removal of DMAE): 24.25% ± 3.23%
- Reversal of Visual Contraction of Human Keratinocytes (Mean ± Std Dev) (Human keratinocytes [2]; 60 Min After Removal of DMAE): 16.546% ± 3.89%
- reversibility of keratinocyte contraction (in words) (Human keratinocytes [2]; after removal of DMAE): reversal of the DMAE-induced keratinocyte contraction
- Percentage of Decreases in Cell Size [3]: 15%
- contraction or shrinkage of keratinocyte cell area as determined by keratinocyte surface area (in words) (Human keratinocytes [4]): dose-dependent contraction or shrinkage
- Visual Contraction of Human Keratinocytes (reduction in cell area, Mean ± Std Dev) (Human keratinocytes [4]; 0.01%, 10 Min): 4.82% ± 0.68%
- Visual Contraction of Human Keratinocytes (reduction in cell area, Mean ± Std Dev) (Human keratinocytes [4]; 0.01%, 20 Min): 6.22% ± 0.95%
- Visual Contraction of Human Keratinocytes (reduction in cell area, Mean ± Std Dev) (Human keratinocytes [4]; 0.05%, 10 Min): 16.40% ± 2.58%
- Visual Contraction of Human Keratinocytes (reduction in cell area, Mean ± Std Dev) (Human keratinocytes [4]; 0.05%, 20 Min): 18.04% ± 3.09%
- Visual Contraction of Human Keratinocytes (reduction in cell area, Mean ± Std Dev) (Human keratinocytes [4]; 0.1%, 10 Min): 23.61% ± 3.03%
- Visual Contraction of Human Keratinocytes (reduction in cell area, Mean ± Std Dev) (Human keratinocytes [4]; 0.1%, 20 Min): 33.83% ± 2.96%

Compound: CC(O)CN(CCN(CC(C)O)CC(C)O)CC(C)O (stereo not drawn) [THPED, N,N,N′,N′-Tetrakis(2-hydroxypropyl)ethylenediamine]
- Electrical Capacitance Contraction of Human Keratinocytes (AUC of capacitance, Mean ± Std Dev) (Human keratinocytes [1]; 0.01% V/V): 29.2 ± 3.2
- Electrical Capacitance Contraction of Human Keratinocytes (AUC of capacitance, Mean ± Std Dev) (Human keratinocytes [1]; 0.05% V/V): 35.1 ± 5.3
- Electrical Capacitance Contraction of Human Keratinocytes (AUC of capacitance, Mean ± Std Dev) (Human keratinocytes [1]; 0.1% V/V): 44.5 ± 9.1
- contraction or shrinkage of keratinocyte cell area as measured by keratinocyte capacitance (in words) (Human keratinocytes [1]): dose-dependent contraction or shrinkage
- contraction or shrinkage of keratinocyte cell area as determined by keratinocyte surface area (in words) (Human keratinocytes [4]): dose-dependent contraction or shrinkage
- Visual Contraction of Human Keratinocytes (reduction in cell area, Mean ± Std Dev) (Human keratinocytes [4]; 0.1%, 2 Min): 32.9% ± 11.3%
- Visual Contraction of Human Keratinocytes (reduction in cell area, Mean ± Std Dev) (Human keratinocytes [4]; 0.1%, 10 Min): 37.9% ± 10.7%
- Visual Contraction of Human Keratinocytes (reduction in cell area, Mean ± Std Dev) (Human keratinocytes [4]; 0.1%, 20 Min): 47.3% ± 12.7%
